Data on 13 compounds can be found in PubChem BioAssay (NCI).

“And” between values parts separate entries of the source, which are not always exact repeats. Identical values can stand only once.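 In this assay, cells in 96-well plates receive the compound at five concentrations for 48 hours. Endpoints are linearly interpolated between the surrounding concentrations. Here, GI50 denotes the concentration required for 50% inhibition of growth. The concentration for full growth arrest is given as TGI.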

What all share (experiment): inhibition of tumour cell growth, NCI panel, 48 h
Assay [1] concerns SK-OV-3 ovarian.
Assay [2] concerns SN12C renal.
The test system of assay [3] is OVCAR-3 ovarian.
Assay [4] has as its system CCRF-CEM leukemia.
The test system of assay [5] is ACHN renal.
Assay [6] relates to UO-31 renal.
The test system of assay [7] is EKVX NSCLC.
For assay [8], the system named is NCI-H226 lung.
Assay [9] relates to IGROV1 ovarian.
Assay [10] relates to SR leukemia.

In the case of `Cc1c2c(n3c(nc4ccccc43)c1C#N)NCC2`, the TGI in assay [1], in assay [2], in assay [3], in [4], in assay [5] and in assay [6] was above 10 µM in each case. For the same compound, the TGI in assay [7], in [8], in assay [9] and in [10] was above 10 µM throughout.
Regarding `O=C(O)C1Cc2[nH]c3ccccc3c2C2CCCC12` (configuration not stated), the TGI in [1], in assay [2], in assay [3], in assay [4], in assay [5] and in assay [6] was above 100 µM in each case. The TGI in assay [7], in assay [8], in [9] and in assay [10] was above 100 µM throughout.
With `O=c1[nH]c(Br)nc2n[nH]nc12`, the TGI in [1], in assay [2], in [3], in assay [4], in assay [5] and in [6] was above 100 µM in each case. Moreover, the TGI in assay [7], in assay [8], in assay [9] and in assay [10] was above 100 µM each time.
Regarding `c1cc2cc(Cc3ccc4[nH]ccc4c3)ccc2[nH]1`, the TGI in assay [1] is 47.8 µM; in assay [2], 31.7 µM; in assay [3], 32.9 µM; in assay [4], above 100 µM; in [5] it was 64.8 µM; in assay [6], 34.6 µM. Further, the TGI in assay [7] is 41.7 µM; in [8], 34.2 µM; in [9], 39.4 µM; in [10], 39.2 µM.
Take `O=C(/C=C/c1ccc(O)c(O)c1)c1ccc(O)cc1O`: the TGI is 38 µM in assay [1]; 43.9 µM in assay [2]; 37.4 µM in [3]; above 71.7 µM in assay [4]; 45.3 µM in [5]; 30.3 µM in [6]. In addition, the TGI in assay [7] was 75.6 µM; in assay [8], 37.6 µM; in assay [9] it was 35.1 µM; in [10], above 78.8 µM.
Take `COc1cccc(C2c3cc4c(cc3OC(NNC(N)=O)C2C)OCO4)c1OC` (configuration not stated): the TGI in assay [1] was 85.3 µM; in assay [2], above 100 µM; in [3] it was 50.2 µM; in assay [4], above 100 µM; in assay [5], above 100 µM; in [6] it was 86 µM. For the same compound, the TGI was above 100 µM in assay [7], 76.1 µM in assay [8], 83.2 µM in assay [9] and 18.8 µM in assay [10].
For `Cc1cc(N(CCC#N)CCC#N)ccc1/C=C(\N=[N+]=[N-])C(=O)NC(=O)COc1ccccc1`, the TGI in assay [1], in [2], in assay [3], in assay [4], in assay [5] and in assay [6] was above 100 µM each time. Also, the TGI in [7], in assay [8], in assay [9] and in assay [10] was above 100 µM in each case.
Regarding `NCCNc1ccc(NCCN)c2c1C(=O)c1c(O)ccc(O)c1C2=O`, the GI50 in assay [1] is 0.0151 µM; in assay [3], 0.385 µM; in [6], 0.0579 µM; in assay [7] it was 0.112 µM; in [8], 0.0102 µM; in [9], 0.182 µM. For the same compound, the TGI in assay [2] is 0.0799 µM and 0.0776 µM; in assay [3] it was 2.18 µM and 1.66 µM; in assay [4], 3.79 µM; in assay [5], 0.117 µM and 0.0596 µM; in assay [6], 0.823 µM and 0.374 µM; in assay [7] it was 1.3 µM and 0.435 µM. Besides, the TGI was 0.0439 µM and 0.0393 µM in assay [8]; 1.17 µM and 1.5 µM in [9]; 0.0171 µM in assay [10].
On to `COc1cc2cnc3c4cc(O)ccc4ccc3c2cc1OC`, for which the TGI in [1], in assay [2], in assay [3], in assay [4], in assay [5] and in assay [6] was above 100 µM each time. Further, the TGI in [7], in assay [8], in assay [9] and in [10] was above 100 µM in each case.
Take `Cc1ccc(/C=C2\CCS(=O)(=O)c3ccccc3C2=O)cc1`: the TGI in assay [1] came out at 46.3 µM; in [2] it was 45.1 µM; in [3] it was 37.7 µM; in assay [4], 62.3 µM; in [5] it was 28.6 µM; in assay [6], 25.4 µM. The TGI in assay [7] was determined as 34.9 µM; in assay [8], 36.2 µM; in [9], 28.7 µM; in [10] it was 63.7 µM.
For the compound `COc1ccccc1NC(=O)C(=O)C(c1cnc2ccc([N+](=O)[O-])cc2n1)[N+](=O)[O-]` (configuration not stated), the TGI in [1], in [2], in assay [4], in assay [5], in [6] and in assay [7] was above 100 µM throughout. Also, the TGI in assay [8], in [9] and in assay [10] was above 100 µM in each case.
`COc1ccc(C(SCCO)(c2ccc(OC)cc2)c2ccc(OC)cc2)cc1`: the TGI stood at 94.5 µM in assay [1]; 33.9 µM in [2]; 28.4 µM in [3]; 66 µM in assay [4]; 50.2 µM in [5]; 34.4 µM in [6]. For the same compound, the TGI came to 36.5 µM in assay [7], 32.7 µM in assay [8] and 26.7 µM in assay [10].
`CCOC(=O)CN1C(=O)c2c(NC(=O)C(=O)O)cccc2S1(=O)=O`: the TGI in [1], in assay [2], in [4], in [5], in [6] and in assay [7] was above 100 µM throughout. For the same compound, the TGI in assay [8], in assay [9] and in assay [10] was above 100 µM each time.
